Like-named read-outs stand apart in the source and are kept apart here.
Assays:
human TTR [1] = target: T1, human TTR (Homo sapiens, UniProt P02766); test: Competition with [125I]-T4 for binding to transthyretin; details: @100 nM
T1 construct: purchased Sigma Aldrich

human TTR [2] = target: T1, human TTR; test: as above; details: for Relative potency (REP), Exp 1 / Relative potency (REP), Exp 2 / Relative potency (REP), Mean: TTR binding relative to T4; for IC50: TTR binding, [125I]-T4 competition
Procedure: Full dose-response curves within the range of 1–100 nM were determined for each OH-PCB metabolite.

HepG2 cells = system: HepG2 cells; parameters: method as in Al-Anati et al., in preparation; details: ref Al-Anati et al., in preparation; cited from earlier work
rats = system: rats; parameters: method as in PMID 8935785; details: dietary exposure 90 days; cited from earlier work
[3] = read-out: IC50, Full dose-resonse experiments, Exp 1
[4] = read-out: IC50, Full dose-resonse experiments, Exp 2

Row | Compound | T4 displacement, Pilot experiment (human TTR [1]) | Relative potency (REP), Exp 1 (human TTR [2]) | Relative potency (REP), Exp 2 (human TTR [2]) | Relative potency (REP), Mean (human TTR [2]) | IC50 (human TTR [2]; n = 2, read-out: IC50, Mean) | IC50 (human TTR [2]; [3]) | IC50 (human TTR [2]; [4]) | Expression of DNA damage markers pChk1Ser317 and γH2AXSer319 (HepG2 cells) | NOAEL (rats) | NOAEL, equivalent daily dose (rats) | NOAEL, equivalent total dose (rats)
1 | Oc1c(Cl)cc(Cl)c(-c2cc(Cl)c(Cl)c(Cl)c2Cl)c1Cl [3' OH-PCB 182] | 93% T4 displacement @100 nM | 3.68 | 2.68 | 3.18 | 19 nM | 17.4 nM | 20.5 nM | – | – | – | –
2 | Oc1c(Cl)c(Cl)c(Cl)c(-c2cc(Cl)c(Cl)cc2Cl)c1Cl [5-OH-PCB 183] | 92% T4 displacement @100 nM | 3.54 | 2.61 | 3.08 | 19.6 nM | 18.1 nM | 21.1 nM | – | – | – | –
3 | Oc1c(Cl)c(Cl)cc(-c2cc(Cl)c(Cl)c(Cl)c2Cl)c1Cl [3'-OH-PCB 180] | 95% T4 displacement @100 nM | 3.96 | 2.84 | 3.40 | 17.8 nM | 16.2 nM | 19.4 nM | induced | – | – | –
4 | Oc1c(Cl)cc(-c2cc(Cl)c(Cl)c(Cl)c2Cl)c(Cl)c1Cl [4'-OH-PCB 172] | 95% T4 displacement @100 nM | 5.37 | 3.90 | 4.64 | 13 nM | 11.9 nM | 14.1 nM | – | – | – | –
5 | Clc1cc(Cl)c(-c2cc(Cl)c(Cl)cc2Cl)cc1Cl [PCB 153, 2,2′,4,4′,5,5′-hexachlorobiphenyl] | – | – | – | – | – | – | – | – | 0.5 mg/kg diet | 34 µg/kg bw/day | 3.1 mg/kg bw
